Here are results for 4 molecules from patent US20250090473A1, “Macrophage Targeted Immunotherapeutics” (The General Hospital Corporation, priority 2017, published 2025).

The subject of assay [1] is murine M2-like macrophages. Description: High-content morphological screening of macrophage re-education (M1 enrichment). In kind it is cell-based. Conditions: for M1 enrichment in response to drug treatment: variable concentrations, FIG. 5A. Here is the method:
Cells were maintained in the indicated medium at 37° C. and 5% CO2 and screened regularly for mycoplasma. RAW 264.7 cells were sourced from ATCC and maintained in Dulbecco's Modified Eagles Medium supplemented with 10% heat inactivated fetal calf serum (Atlanta Biologicals), 100 IU penicillin (Invitrogen), and 100 μg mL^−1 streptomycin (Invitrogen), and […] L-glutamine. The MC38 mouse colon adenocarcinoma cell lines were provided by Mark Smyth (QIMR Berghofer Medical Research Institute) with stable transfection of the H2B-Apple reporter to yield a MC38-H2B-mApple cell line employed in intravital microscopy studies. Murine bone marrow-derived macrophages (BMDMs) were isolated and derived by adaptation of published procedures known to those of skill in the art. Briefly, bone marrow was extracted from the surgically resected femur and tibia of naive C57BL/6 mice, dissociated and passed through a 40 μm strainer, and red blood cells lysed by ammonium chloride (StemCell Tech). Resultant bone marrow cells were plated in either 24-well (Corning 3527, for PCR analysis) or optical-bottom 384-well plates (Thermo Fisher 142761, for image analysis) at 1×10^6 cells mL^−1 in Iscove's Modified Dulbecco's Medium supplemented with 10% heat inactivated fetal calf serum, 100 IU penicillin, 100 μg ml^−1 streptomycin (Invitrogen) and 10 ng mL^−1 recombinant murine M-CSF (PeproTech, 315-02); media was replenished every two days. Human macrophages were derived from peripheral blood mononuclear cells isolated using Ficoll-Paque PLUS (GE Healthcare) gradient separation and derived in the presence of 50 ng mL^−1 recombinant human M-CSF (PeproTech, 300-25). Cell proliferation was assessed by PrestoBlue (Fisher) following manufacturer's protocols.
For morphological analysis, media was replenished with M-CSF-free media on day 7 followed by drug dosing (Table 1).
After 48 hours, cells were fixed with formaldehyde (30 min, 37° C.) and stained for actin (5.0 μg mL^−1 DyLight 554 Phalloidin, Cell Signaling Technology), cell membrane (5.0 μg mL^−1 Alexa Fluor 647 wheat germ agglutinin, Thermo Fisher) and nuclei (DAPI, Invitrogen) for 25 min at room temperature. Plates were washed by PBS prior to imaging on a custom Olympus-based automated high-content screening microscope. Four images were acquired per well in a 2×2 grid, imported into CellProfiler (Broad Institute) for pre-processing and segmentation (Table 2).
Computational cell classification was performed in CellProfiler Analyst (Broad Institute) by random forest assignment. Training data (examples provided, Supplementary Figure S1) consisted of approximately 50 healthy cells each representing undifferentiated (M0), M1-like, or M2-like phenotypes. The fast gentle algorithm was trained on the selected cells for […] determination of weights and thresholds for cell shape features. The resulting set of parameters was used to score all other images. The enrichment score for M1 cells was output back into the database and imported into KNIME to generate per-well and per-treatment averages.
Cell morphology was used as an integrated biomarker of cell function, including as an indicator for age and immunosuppressive capacity. The method that was used uses high-content image analysis via computational automated segmentation to extract features of single cells such as cellular radius, axis lengths, compactness, and eccentricity which are associated with the polarization state. […]

For assay [2], the system named is M2-like (IL-4 treated) murine macrophages. Description: qPCR transcriptional analysis of M2-like (IL-4 treated) murine macrophages. The assay is classed as cell-based. Conditions: Mus musculus, Macrophage, M2-like macrophages cultured with R848, 24 hours, given as logIC50. Here is the method: For transcriptional analysis, derived murine macrophages were treated with 10 ng mL^−1 recombinant mouse IL-4 (PeproTech 214-14) for 24 hours to induce an M2-like polarization state and subsequently dosed with fresh media supplemented by pharmacologic drugs at the prescribed concentrations. Macrophages treated only with IL-4 (10 ng mL^-1) or LPS (100 ng mL^-1) and IFNg (50 ng mL^-1) served as internal controls for M2-like and M1-like transcription profiles, respectively. […] Data are presented as the gene expression (fold change relative to hprt or β-actin, as indicated) or M1-likeness, calculated as described in Example 2, FIG. 20B. […]
A subset of drugs having a range of M1 enrichment activities were further scrutinized by qPCR analysis of representative M1-like (nos2, il12, and cd80) and M2-like (mrc1, arg1) transcripts. FIG. 20A is a set of two bar graphs depicting gene expression of M1-like and M2-like macrophages, expressed as fold change relative to hprt. […] M1-likeness is determined by summing the changes in expression for each gene resulting from treatment, normalized to the range of expression observed in the training data. […]

Molecules are shown by their SMILES. pEC50, pIC50: −log10 of the molar value. Read-outs that look alike come from different tables or passages of the source.

Regarding `CCCCOc1nc(N)c2c(n1)N(Cc1cccc(CN3CCCC3)c1)CC(=O)N2` [GS9620], in assay [1], the “M1 enrichment in response to drug treatment” value was “M1 enrichments which were as pronounced as standard M1 induction by LPS and IFNγ”. The same measure, in the same setting: the result for `COc1ccc(COc2ccc(Cc3cnc(N)nc3N)cc2OC)cc1` [GW2580] reads “exception”. For `CCOCc1nc2c(N)nc3ccccc3c2n1CC(C)(C)O` [R848, resiquimod], the IC50 in assay [2] (read-out: logIC50 of IL12 transcription (converted)) was 0.398 µM; in assay [2] (read-out: logIC50 of TLR7 expression (converted)) it was 0.00724 µM. In addition, in assay [1] (Mus musculus, Macrophage, dose response, 48 hours), the pEC50 was 7.85. The same molecule showed a pIC50 in assay [1] (Mus musculus, Macrophage, given as logIC50) of 7.84. Turning to `CCCN(CCC)C(=O)C1=Cc2ccc(-c3ccc(C(=O)N4CCCC4)cc3)cc2N=C(N)C1` [motolimod], in assay [1], the “M1 enrichment in response to drug treatment” value was “M1 enrichments which were as pronounced as standard M1 induction by LPS and IFNγ”.
